Here are results for one compound from PMC3680066 (BMC Microbiology, 2013).

The target in the experiment is leucine aminopeptidase (LAP), pepA (Burkholderia pseudomallei, UniProt Q63WC3). In words: biochemical. To be noted: read-out: Relative activity (%).
Sequence of leucine aminopeptidase (LAP), pepA (Q63WC3 whole entry, looked up): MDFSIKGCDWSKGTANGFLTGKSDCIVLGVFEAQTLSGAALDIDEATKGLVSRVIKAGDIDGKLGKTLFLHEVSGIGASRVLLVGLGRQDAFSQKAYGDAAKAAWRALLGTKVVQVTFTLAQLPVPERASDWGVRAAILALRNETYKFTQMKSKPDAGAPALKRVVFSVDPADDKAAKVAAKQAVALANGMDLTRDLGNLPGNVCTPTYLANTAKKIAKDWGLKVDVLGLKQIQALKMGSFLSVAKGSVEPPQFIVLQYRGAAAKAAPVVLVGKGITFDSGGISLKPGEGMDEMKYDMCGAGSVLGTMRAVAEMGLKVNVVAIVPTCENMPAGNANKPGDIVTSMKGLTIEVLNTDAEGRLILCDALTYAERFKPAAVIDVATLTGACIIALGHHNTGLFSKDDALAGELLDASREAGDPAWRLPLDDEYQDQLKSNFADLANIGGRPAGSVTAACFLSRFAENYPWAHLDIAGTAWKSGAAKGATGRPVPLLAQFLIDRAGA

For `CC(C)C[C@@H](N)[C@H](O)C(=O)N[C@H](C(=O)N[C@H](C(=O)N[C@@H](CC(=O)O)C(=O)O)C(C)C)C(C)C` [amastatin], the activity at 2000 µM stood at 0%.
